Values quoted from earlier work as cited in patent publication US9291622B2, “Complement assays and uses thereof” (Apellis Pharmaceuticals, Inc., priority 2009, dated 2016).
[ ]: non-standard residue; d: D form. Trp(5-F) = N[C@@H](Cc1c[nH]c2ccc(F)cc12)C(=O)O; Trp(5-Me) = Cc1ccc2[nH]cc(C[C@H](N)C(=O)O)c2c1; Trp(6-F) = N[C@@H](Cc1c[nH]c2cc(F)ccc12)C(=O)O; Bpa = N[C@@H](Cc1ccc(C(=O)c2ccccc2)cc1)C(=O)O; 1Nal = N[C@@H](Cc1cccc2ccccc12)C(=O)O; 2Nal = N[C@@H](Cc1ccc2ccccc2c1)C(=O)O; Igl = N[C@H](C(=O)O)C1Cc2ccccc2C1; Dht = dihydrotryptophan

Test system: complement activation
Settings: fold activity relative to compstatin (H-ICVVQDWGHHRCT-CONH2)

Compared with “Ac-ICV(5fW)QDWGAHRCT-CONH2 (Ac-ICV[Trp(5-F)]QDWGAHRCT-NH2; cysteine pairing not given here) [Ac-V4(5fW)/H9A]”, “Ac-ICV(2-Nal)QDWGAHRCT-COOH (Ac-ICV[2Nal]QDWGAHRCT-OH; cysteine pairing not given here) [Ac V4(2-Nal)/H9A —OH]” is higher in Activity over compstatin: 31 × more for the first, 38 × more for the second.

Going from “Ac-ICVWQD(5fW)GAHRCT-CONH2 (Ac-ICVWQD[Trp(5-F)]GAHRCT-NH2; cysteine pairing not given here) [Ac-V4W/W7(5fW)/H9A]” to “Ac-ICV(Bpa)QDWGAHRCT-CONH2 (Ac-ICV[Bpa]QDWGAHRCT-NH2; cysteine pairing not given here) [Ac-V4(Bpa)/H9A]”, the Activity over compstatin falls from 121 × more to 86 × more.

First: Ac-ICVDhtQDWGAHRCT-COOH (Ac-ICV[Dht]QDWGAHRCT-OH; cysteine pairing not given here) [Ac-V4Dht/H9A —OH]
Second: Ac-ICV(1-Nal)QDWGAHRCT-COOH (Ac-ICV[1Nal]QDWGAHRCT-OH; cysteine pairing not given here) [Ac V4(1-Nal)/H9A —OH]
The Activity over compstatin of the first is lower: 5 × more for the first, 30 × more for the second.

Compared with Ac-ICVYQDWGAHRCT-CONH2 [Ac-V4Y/H9A], “Ac-ICV(Bpa)QDWGAHRCT-COOH (Ac-ICV[Bpa]QDWGAHRCT-OH; cysteine pairing not given here) [Ac-V4(Bpa)/H9A —OH]” is higher in Activity over compstatin: 14 × more for the first, 49 × more for the second.

First: Ac-ICVWQDWGAHRCdT-COOH [Ac-V4W/H9A/T13dT —OH]
Second: Ac-ICV(5fW)QD(5fW)GAHRCT-CONH2 (Ac-ICV[Trp(5-F)]QD[Trp(5-F)]GAHRCT-NH2; cysteine pairing not given here) [Ac-V4(5fW)/W7(5fW)/H9A]
The Activity over compstatin of the first is lower: 55 × more for the first, 161 × more for the second.

Compared with Ac-ICVVQDWGHHRCT-CONH2 [Ac-compstatin], “Ac-ICV(5-methyl-W)QDWGAHRCT-CONH2 (Ac-ICV[Trp(5-Me)]QDWGAHRCT-NH2; cysteine pairing not given here) [Ac-V4(5-MeW)/H9A]” is higher in Activity over compstatin: 3 × more for the first, 67 × more for the second.

Going from “H-GICV(6fW)QD(6fW)GAHRCTN-COOH (H-GICV[Trp(6-F)]QD[Trp(6-F)]GAHRCTN-OH; cysteine pairing not given here) [+G/V4(6fW)/W7(6fW)H9A +N —OH]” to “Ac-ICV(2-Igl)QDWGAHRCT-COOH (Ac-ICV[Igl]QDWGAHRCT-OH; cysteine pairing not given here) [Ac-V42Igl/H9A —OH]”, the Activity over compstatin falls from 126 × more to 37 × more.

Compared with “Ac-ICV(2-Nal)QDWGAHRCT-CONH2 (Ac-ICV[2Nal]QDWGAHRCT-NH2; cysteine pairing not given here) [Ac-V4(2-Nal)/H9A]”, “Ac-ICV(2-Igl)QDWGAHRCT-CONH2 (Ac-ICV[Igl]QDWGAHRCT-NH2; cysteine pairing not given here) [Ac-V42Igl/H9A]” is lower in Activity over compstatin: 99 × more for the first, 39 × more for the second.

For “Ac-ICVWQDWGAHRCT-CONH2 (Ac-ICVWQDWGAHRCT-NH2; cysteine pairing not given here) [Ac-V4W/H9A]”, the Activity over compstatin is given as 45 × more.
